The values below come from patent US10174077B2, “Method of inhibiting activity of cell surface fibroblast activation protein alpha” (The Board of Regents of the University of Oklahoma, priority 2006, dated 2019).

Where two headings read alike, the source gives them in different places. Where a SMILES comes first, the peptide text is derived from it. [ ]: non-standard residue; d: D form. Pip = O=C(O)[C@@H]1CCCCN1; AEEA = NCCOCCOCC(=O)O

In one assay the target is T1, APCE (Homo sapiens, UniProt Q12884).
T1 construct: APCE lacks the first 23 amino terminal residues of FAP; tissue Sylvan Goldman Blood Institute (source of the plasma); host or cells: human plasma
T1 sequence (Q12884 24-760 limits assumed): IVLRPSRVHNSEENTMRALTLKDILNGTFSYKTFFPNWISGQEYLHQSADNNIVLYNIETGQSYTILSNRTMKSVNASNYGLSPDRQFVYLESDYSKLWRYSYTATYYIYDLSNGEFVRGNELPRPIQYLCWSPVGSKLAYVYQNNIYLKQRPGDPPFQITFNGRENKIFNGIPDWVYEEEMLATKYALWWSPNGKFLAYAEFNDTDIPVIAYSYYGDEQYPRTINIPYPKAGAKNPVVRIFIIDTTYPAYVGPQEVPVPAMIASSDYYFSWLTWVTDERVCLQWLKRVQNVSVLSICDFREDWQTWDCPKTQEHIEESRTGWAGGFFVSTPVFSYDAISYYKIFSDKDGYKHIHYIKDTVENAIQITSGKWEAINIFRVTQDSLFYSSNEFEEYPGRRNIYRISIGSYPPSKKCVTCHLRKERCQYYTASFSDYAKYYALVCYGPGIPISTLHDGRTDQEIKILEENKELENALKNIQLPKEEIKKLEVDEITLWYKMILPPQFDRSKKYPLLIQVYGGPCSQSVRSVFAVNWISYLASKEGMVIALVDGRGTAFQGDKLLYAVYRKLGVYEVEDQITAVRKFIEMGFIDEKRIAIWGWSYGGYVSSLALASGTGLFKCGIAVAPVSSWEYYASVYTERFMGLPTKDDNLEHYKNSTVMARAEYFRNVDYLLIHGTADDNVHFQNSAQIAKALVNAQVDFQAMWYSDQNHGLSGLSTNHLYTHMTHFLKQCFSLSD
Kind of assay: APCE enzyme assay with fluorescent AMC substrates, competitive inhibition constants. The settings on record: for Selectivity, Ki (DPPIV)/Ki (APCE/FAP): ratio of Ki values. In kind it is biochemical. The procedure: (§1) Fluorescence was monitored with time at excitation and emission wavelengths of 360 and 460 nm using a black-sided, 96-well plate in a BIO-TEK FL600 fluorescence plate reader. For standard curves, dilutions of AMC (7-amino-4-methylcoumarin) were prepared in the same assay buffer and corresponding fluorescence was measured. The substrates in five different concentrations were mixed with four different concentrations of inhibitors around the expected Ki values; the enzyme was added and enzymatically released AMC fluorescence was recorded. […] Therefore, enzyme kinetic parameters were computed by fitting data to the following equation, employing the program PRISM, GraphPad: […]

The target of another assay is DPPIV (Homo sapiens, UniProt P27487). Kind of assay: DPPIV enzyme assay with fluorescent AMC substrates, inhibition constants. Format: biochemical. The procedure: as §1
Sequence of DPPIV (P27487 whole entry, species assumed): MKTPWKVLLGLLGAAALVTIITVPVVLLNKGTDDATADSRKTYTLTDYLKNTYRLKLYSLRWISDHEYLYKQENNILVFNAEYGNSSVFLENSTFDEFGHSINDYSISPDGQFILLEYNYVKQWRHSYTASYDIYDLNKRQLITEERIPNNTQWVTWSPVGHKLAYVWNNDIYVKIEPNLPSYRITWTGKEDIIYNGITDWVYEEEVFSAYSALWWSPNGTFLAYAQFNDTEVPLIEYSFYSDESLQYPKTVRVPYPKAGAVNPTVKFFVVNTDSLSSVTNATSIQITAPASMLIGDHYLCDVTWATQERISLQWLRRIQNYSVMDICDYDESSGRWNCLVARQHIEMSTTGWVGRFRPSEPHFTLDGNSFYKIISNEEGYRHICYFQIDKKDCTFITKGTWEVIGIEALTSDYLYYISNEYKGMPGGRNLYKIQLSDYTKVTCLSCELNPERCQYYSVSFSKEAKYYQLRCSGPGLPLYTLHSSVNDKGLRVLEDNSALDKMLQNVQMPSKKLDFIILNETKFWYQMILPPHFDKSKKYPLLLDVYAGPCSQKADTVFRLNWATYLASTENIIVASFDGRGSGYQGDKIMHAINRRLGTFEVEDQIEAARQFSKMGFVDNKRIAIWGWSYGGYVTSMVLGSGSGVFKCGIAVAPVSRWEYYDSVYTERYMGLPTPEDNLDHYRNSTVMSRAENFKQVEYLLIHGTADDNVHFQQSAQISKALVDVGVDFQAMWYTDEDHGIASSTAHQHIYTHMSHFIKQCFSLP
Assay [1] addresses T2, cell surface FAP of W138 fibroblast cells (Homo sapiens, UniProt Q12884).
T2 construct: FAP proteolytic activity expressed on the surface of living fibroblast cells; endogenous in cells; host or cells: W138 (WI-38) fibroblasts
T2 sequence (Q12884 1-760): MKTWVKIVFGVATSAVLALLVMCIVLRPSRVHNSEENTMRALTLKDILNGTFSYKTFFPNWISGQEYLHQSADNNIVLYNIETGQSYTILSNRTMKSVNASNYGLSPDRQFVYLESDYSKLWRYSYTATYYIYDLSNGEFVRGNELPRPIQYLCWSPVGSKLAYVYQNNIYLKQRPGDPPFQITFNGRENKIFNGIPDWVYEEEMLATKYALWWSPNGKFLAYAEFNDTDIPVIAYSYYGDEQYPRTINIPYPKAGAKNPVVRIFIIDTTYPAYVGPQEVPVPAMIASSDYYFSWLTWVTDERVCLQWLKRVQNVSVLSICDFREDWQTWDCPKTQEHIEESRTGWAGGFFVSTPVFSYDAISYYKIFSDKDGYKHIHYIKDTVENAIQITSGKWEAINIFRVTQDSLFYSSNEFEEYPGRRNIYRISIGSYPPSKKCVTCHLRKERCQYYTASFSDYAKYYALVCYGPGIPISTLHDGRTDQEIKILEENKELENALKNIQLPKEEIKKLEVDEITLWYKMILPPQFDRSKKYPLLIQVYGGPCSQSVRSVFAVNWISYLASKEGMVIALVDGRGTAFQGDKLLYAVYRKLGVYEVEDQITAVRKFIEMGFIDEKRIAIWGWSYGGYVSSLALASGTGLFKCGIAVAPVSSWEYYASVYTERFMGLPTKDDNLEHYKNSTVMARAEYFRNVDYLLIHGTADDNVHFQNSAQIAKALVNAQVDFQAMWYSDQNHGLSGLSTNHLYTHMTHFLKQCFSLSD
Kind of assay: Cell surface FAP activity of fibroblasts (cleavage of Ac-Arg-peg-Gly-Pro-AMC). In kind it is cell-based. The procedure: FIG. 6 is a graph showing cell surface FAP activity of fibroblasts. W138 Cells were seeded into opaque black 96 well cell culture plates and grown to confluency. Cells were washed with Hanks Balanced Salt Solution after which either the inhibitor compound Ac-Arg-(8-amino-3,6-dioxaoctanoyl)-D-Ala-L-boroPro, or buffer, was added. The FAP substrate, Ac—R-peg-G-P-AMC, was added and fluorescence was measured with time. The inhibitor was added to one set of cells 2 hours after substrate addition (see arrow). O.D. 360/460 was converted to APCE Units using a standard curve.
FIG. 6, for example, illustrates that FAP proteolytic activity expressed on the surface of living fibroblast cells can readily be inhibited by the inhibitor Ac-Arg-peg-D-Ala-boroPro (a.k.a. M83). We measured FAP activity by use of a synthetic substrate, Ac-Arg-peg-Gly-Pro-amidomethyl coumarin, which produces fluorescence upon cleavage of the bond between proline and the amidomethylcoumarin by FAP. In these experiments we made a treatment and then measured any fluorescence generated over several hours. The figure compares three treatments: • (1) “Control”: This curve represents addition of the substrate to live cells bathed in culture media with no other treatment. The synthetic substrate cleavage is observed as reflected by measurement of the fluorescence generated that is expressed as APCE Units.

Assay [2] concerns the target T3, cell surface FAP of MDA-MB-435 breast cancer cells (Homo sapiens, UniProt Q12884).
T3 construct: cultured breast cancer cells also have FAP activity on their cell surface; endogenous in cells; host or cells: MDA-MB-435 cells
T3 sequence (Q12884 1-760): T2 sequence (Q12884 1-760)
Kind of assay: Cell surface FAP activity of breast cancer cells (cleavage of Ac-Arg-peg-Gly-Pro-AMC). In kind it is cell-based. The note with it: live MDA-MB-435 breast cancer cells, inhibitor added with substrate. The procedure: FIG. 7 is a graph showing cell surface FAP activity of breast cancer cells. MDA-MB-435 cells were seeded into opaque black 96 well cell culture plates and grown to confluency. Cells were washed with Hanks Balanced Salt solution after which either the inhibitor compound Ac-Arg-(8-amino-3,6-dioxaoctanoyl)-D-Ala-L-boroPro, or buffer, was added. The FAP substrate, Ac—R-peg-G-P-AMC, was added and fluorescence measured with time. O.D. 360/460 was converted to APCE Units using a standard curve.
In FIG. 7, the experiment was performed in exactly the same way as for FIG. 6, except live breast cancer cells were used.

[3] abbreviates: best-fit value ± standard error, read-out: Ki, inhibition of APCE activity.

On to `CC(=O)NC(CCCNC(=N)N)C(=O)NCC(=O)NCC(=O)N1CCCC1B(O)O` (racemic) [Ac-Arg-Gly-Gly-DL-boroPro], for which, on APCE, the “Selectivity, Ki (DPPIV)/Ki (APCE/FAP)” value was 14.9. Besides, the Ki on APCE (read-out: APCE/FAP Ki) was 0.0229 µM; on DPPIV, 0.341 µM.

Take `CC(=O)NC(CCCNC(=N)N)C(=O)NCCOCCOCC(=O)NCC(=O)N1CCCC1B(O)O` (racemic) [Ac-Arg-peg-Gly-DL-boroPro]: the “Selectivity, Ki (DPPIV)/Ki (APCE/FAP)” value on APCE was determined as 371. Further, the Ki worked out at 0.0031 µM on APCE (read-out: APCE/FAP Ki) and 1.15 µM on DPPIV.

Consider `CC(=O)NC(CCCNC(=N)N)C(=O)NCCOCCOCC(=O)NC(C)C(=O)N1CCCC1B(O)O` (single isomer, unassigned) [Ac-Arg-peg-D-Ala-D-boroPro], for which, at APCE, the “Selectivity, Ki (DPPIV)/Ki (APCE/FAP)” value came to 108.

With `CC(=O)NC(CCCNC(=N)N)C(=O)NCCOCCOCC(=O)NC(C)C(=O)N1CCCC1B(O)O` (single isomer, unassigned) [Ac-Arg-peg-D-Ala-L-boroPro, acetyl-arg-8-amino-3,6-dioxaoctanoic acid-D-ala-L-boroPro], the “Selectivity, Ki (DPPIV)/Ki (APCE/FAP)” value at APCE amounted to 1075. Further, the Ki on APCE (read-out: APCE/FAP Ki) is 0.0057 µM; at DPPIV it was 6.13 µM. Moreover, the “Cell surface FAP activity (substrate hydrolysis, fluorescence as APCE Units)” value was “inhibited cell surface FAP immediately” in assay [1] (10 uM inhibitor added to fibroblasts 2 hrs after substrate, listed as Ac-Arg-(8-amino-3,6-dioxaoctanoyl)-D-Ala-L-boroPro); “immediately and completely arrested” in assay [1] (10 uM inhibitor added to fibroblasts 2 hrs after substrate, listed as M83); “no substrate hydrolysis occurs” in assay [1] (10 uM inhibitor added to live fibroblasts simultaneously with substrate, followed 5 hours); “completely inhibited” in assay [2].

For the molecule `CC(=O)N[C@@H](CCCNC(=N)N)C(=O)NCC(=O)NCC(=O)N1CCC[C@H]1B(O)O` [Ac-Arg-Gly-Gly-L-boroPro], the “Selectivity, Ki (DPPIV)/Ki (APCE/FAP)” value at APCE was 18.7. Further, the Ki was 0.0172 µM on APCE (read-out: APCE/FAP Ki) and 0.322 µM at DPPIV.

As to `CC(=O)NC(CCCNC(=N)N)C(=O)NCCOCCOCC(=O)NC(C)C(=O)N1CCCC1B(O)O` [Ac-Arg-peg-D-Ala-DL(50:50%)-boroPro], at APCE, the “Selectivity, Ki (DPPIV)/Ki (APCE/FAP)” value was determined as 1176. For the same molecule, the figures for the Ki at APCE (read-out: APCE/FAP Ki) and at DPPIV were 0.0095 µM and 11.2 µM, respectively.

For the molecule `CC(=O)N[C@@H](CCCNC(=N)N)C(=O)NCCOCCOCC(=O)N[C@H](CC(=O)O)C(=O)N1CCC[C@H]1B(O)O` [Ac-Arg-peg-D-Asp-L-boroPro], the “Selectivity, Ki (DPPIV)/Ki (APCE/FAP)” value on APCE is 5.2. The Ki at APCE (read-out: APCE/FAP Ki) was 1.38 µM; at DPPIV it was 7.13 µM.

Consider `CC(=O)N[C@@H](CCCNC(=N)N)C(=O)NCCOCCOCC(=O)NCC(=O)N1CCC[C@H]1B(O)O` [Ac-Arg-peg-Gly-L-boroPro], for which, on APCE, the “Selectivity, Ki (DPPIV)/Ki (APCE/FAP)” value is listed as 244. Besides, the Ki at APCE (read-out: APCE/FAP Ki) stood at 0.0018 µM; at DPPIV, 0.44 µM.

In the case of `CC(=O)N[C@@H](CCCNC(=N)N)C(=O)NCCOCCOCC(=O)N[C@@H](CO)C(=O)NCC(=O)N1CCC[C@H]1B(O)O` [Ac-Arg-peg-Ser-Gly-L-boroPro], on APCE, the “Selectivity, Ki (DPPIV)/Ki (APCE/FAP)” value is listed as 319.

On to `N=C(N)NCCC[C@H](NC(=O)[C@@H](N)Cc1ccccc1)C(=O)NCCOCCOCC(=O)NCC(=O)N1CCCC[C@H]1C(N)=O` [Inhibitor (11), FR-peg-G-pipecolinamide] (H-FR[AEEA]G[Pip]-NH2), for which the Ki at APCE (setting [3]) was over 1000 µM.

Ac-Arg-peg-D-Ala-DL(25:75%)-boroPro: the Ki at APCE (read-out: APCE/FAP Ki) was 0.0077 µM.

Turning to Ac-Arg-peg-D-Ala-DL(75:25%)-boroPro, the Ki at APCE (read-out: APCE/FAP Ki) was determined as 0.0183 µM.

As for FG-peg-G-pyrrolidide [Inhibitor (6)], the Ki on APCE (setting [3]) stood at 703 ± 68 µM.

Turning to “FR-peg-G-[r]fluoropyrrolidide [Inhibitor (8)]”, at APCE (setting [3]), the Ki worked out at 53.8 ± 4.9 µM.

For “FR-peg-G-[s]fluoropyrrolidide [Inhibitor (9)]”, the Ki at APCE (setting [3]) was determined as 55.3 ± 5.3 µM.

FR-peg-G-pyrrolidide [Inhibitor (5)]: the Ki on APCE (setting [3]) is 67.7 ± 5.8 µM.
